Data: patent US10960037B2, “Method of treating neurological conditions with extract of Nerium species or Thevetia species” (PHOENIX BIOTECHNOLOGY, INC., priority 2010, dated 2021)
“Also recorded” adds a separate entry of the source.

What was measured:
[1] = test system: ARE target genes Gclm, Nqo1, Srx, Hmox1; experiment: ARE target gene expression by qPCR, rat co-cultures; format: cell-based; conditions: for expression of ARE target genes: 6 h
Protocol: FIG. 17 depicts the results of expression assays for Fraction 0-4 and the individual triterpenes oleanolic acid, ursolic acid, betulinic acid and uvaol. “X” symbols denote concentrations of compounds which induced toxicity and for which recovery of residual mRNA was insufficient to support qPCR analysis. Rat primary corticostriatal co-cultures were treated for 6 h with Fraction 0-4 (in μg/ml) or oleanolic acid, ursolic acid, betulinic acid, or uvalol (all in μM) at the concentrations indicated, then harvested and processed for qPCR analysis of the ARE target genes shown. Quantitative RNA values were normalized to the GAPDH reference control and fold-expression changes are expressed relative to the DMSO-carrier only condition (“--”) set to a value of 1. Dark bars denote statistically significant differences with respect to the DMSO-carrier only control by a Student's t-test at p<0.05.
FIG. 18 depicts the results of expression assays for Fraction 0-4 and the individual triterpenes ursolic acid and betulinic acid at more similar concentration ranges. Rat primary corticostriatal co-cultures were treated for 6 h with Fraction 0-4 (in μg/ml) or ursolic acid and betulinic acid (in μM) at the concentrations indicated, then harvested and processed for qPCR analysis of the ARE target genes shown. Quantitative RNA values were normalized to the GAPDH reference control and fold-expression changes are expressed relative to the DMSO-carrier only condition (“--”) set to a value of 1. Dark blue bars denote statistically significant differences with respect to the DMSO-carrier only control by a Student's t-test at p<0.05.
For qPCR quantification of ARE target gene expression levels, cortical and striatal neurons were plated onto 96-well plates containing mature glial cultures and cultured for 96 h. Fraction 0-4 was added to cultures at the indicated concentrations for 6 h. At the end of the treatment period, cells were lysed and total RNA was isolated using Absolutely RNA mini-prep kits (Agilent Technologies/Stratagene). cDNA was generated using oligo dT primers and Superscript II reverse transcriptase (Invitrogen). Resulting cDNA was used for quantitative PCR of gene transcripts using SYBR Green Real-Time PCR Master Mix (Life Technologies) and the following mouse primers, for: Gclc (forward-5′ […]-3′ and reverse-5′-[…]-3′), Nqo1 (forward-5′-GCCCGCATGCAGATCCT-3′ and reverse 5′-[…]3′), Srx (forward-5′-[…]-3′ and reverse-5′-[…]-3′), and Hmox1 (forward-5′-[…]-3′ and reverse-5′-[…]-3′) (Integrated DNA Technologies). […] Each biological sample was measured in triplicate on a ViiA 7 real-time PCR instrument (Applied Biosystems); fold expression was calculated after normalization to corresponding control GAPDH levels.

[2] = test system: cortical pyramidal neurons in APP-transfected brain slices; experiment: Brain slice APP/Aβ-induced degeneration "Alzheimer's" assay; format: cell-based, rat; conditions: result in words
Source text: Example 9 provides a detailed description of an in vitro assay used to evaluate the efficacy of the extract for the treatment of Alzheimer's disease. The assay is a brain slice-based assay for APP/Aβ-induced (APP: amyloid precursor protein) degeneration of cortical pyramidal neurons. Upon cleavage by a secretase enzyme, the APP is reduced to Aβ peptides which are believed to be a causative factor in beta-amyloid plaque formation. Aβ proteins are associated with beta-amyloid plaque formation and are believed to be a hallmark if not etiologic factor in Alzheimer's disease. […]
The APP-WT brain slice-based Alzheimer's assay was repeated (Example 11) using fractions of the SCF extract of Nerium oleander. The number of healthy cortical neurons was determined following APP/Aβ-induced degeneration in the presence of varying amounts of fraction 0-4A of the SCF extract (0.01 to 100 μg/ml). […]
(§1) For all brain slice assays, numbers of healthy pyramidal neurons in the cortical regions of each brain slice were imaged on a Leica MZIIIFL fluorescence stereomicroscope. Cortical pyramidal neurons were readily identified by their characteristic positions and orientations in the cortical plate, and by their prominent extension of a single, apical dendrite radially towards the pial surface. […]

[3] = test system: cortical and striatal neurons transfected with mutant htt; experiment: Cortico-striatal co-culture "Huntington's disease" assay; format: cell-based
Source text: Example 10 provides a detailed description of an assay used to evaluate the efficacy of the extract (or fraction thereof) for the treatment of Huntington's disease. Mutant htt protein is introduced via electroporation into high-density, mixed co-cultures of cortical neurons, striatal neurons, and glia. The striatal and cortical neurons are transfected with different color fluorescent proteins thereby facilitating the separate identification of the different types of neurons in the co-culture. The color fluorescent proteins are fluorescent and ‘emit’ color upon activation with a light source of appropriate wavelength. […] Such other agents can be used along with or in the absence of oleandrin or other cardiac glycoside.
In this assay, instead of using intact brain slices, mutant htt is introduced via electroporation into high-density, mixed co-cultures of cortical neurons, striatal neurons, and glia arrayed in 96-well plates. […] In this assay, over the course of 1-2 weeks in vitro, transfected mutant htt constructs induce the progressive degeneration of both striatal and cortical neurons that are subsequently quantified using automated image acquisition and object detection algorithms on the Cellomics Arrayscan VTI platform. […] In a full run, some 25,000 images are collected and analyzed in each cycle, 4 cycles per week. […]

[4] = test system: healthy cortical pyramidal neurons in brain slices subjected to OGD; experiment: Brain slice-based oxygen-glucose deprivation (OGD) "stroke" neuroprotection assay; format: cell-based, Sprague-Dawley rat; conditions: result in words
Protocol: Example 8 provides a detailed description of an in vitro assay used to evaluate the efficacy of the extract, or fraction thereof, or composition thereof, for the treatment of stroke-mediated ischemic neuronal injury. The assay is a brain slice-based assay for oxygen and glucose deprivation (OGD) used to induce 50% loss of healthy cortical neurons by 24 hours. The parent unfractionated SCF extract of Nerium species, e.g. Nerium oleander, is used as a positive control. The parent extract is then fractionated according to Example 13 to provide a fraction of extract of Nerium species. The fractions are analyzed according to Examples 6, 14 and 17.
Neocortical brain slices were prepared from PND 7 Sprague-Dawley rat pups. The cerebral cortex was dissected, cut into 400-μ-thick slices and transferred into a container containing cold artificial cerebrospinal fluid with 1 μM MK-801 before plating; MK-801 was not included in any subsequent procedures. To mimic ischemic injury using transient oxygen-glucose deprivation (OGD), slices from one hemisphere of each brain were exposed to glucose-free, N2-bubbled artificial cerebrospinal fluid for 7.5 min in a low 02 (0.5%) environment. The OGD slices were then plated side-by-side with control slices from the contralateral hemisphere on nitrocellulose or Millicell (Millipore) permeable membranes, which were prepared identically except for no OGD. Thirty minutes after plating, the brain slice pairs were transfected, transferred to 24-well plates, and incubated at 37° C. under 5% CO2 in humidified chambers. In each experiment, 5-6 minutes of oxygen-glucose deprivation (OGD) was used to induce >50% loss of healthy cortical neurons by 24 hrs. A set concentration (3 μM) of neriifolin (a cardiac glycoside) was used as the internal positive control. […] A neuroprotective composition can be used as described herein for oleandrin.
Coronal brain slices (250 μm thick) were prepared from postnatal day 10 Sprague-Dawley rat pups of either gender (Charles River) and established in organotypic culture. Animals were sacrificed in accordance with NIH guidelines and under Duke IACUC approval and oversight. […]
as §1

[5] = test system: cortical neurons in "non-OGD" brain slices; experiment: Non-stroke (non-OGD) brain slice assay; format: cell-based, Sprague-Dawley rat; conditions: sliced and YFP-transfected, no OGD
Protocol: Neuroprotective composition, oleandrin, PBI-05204 (an unfractionated SCF extract of Nerium oleander) or a fraction of the extract (PBI-04711) were tested on “nonstroked” brain slices; that is, ones that were sliced and transfected with YFP but not subjected to additional trauma via OGD. See experimental procedure outlined above.

C=C(C)[C@@H]1CC[C@]2(C(=O)O)CC[C@]3(C)[C@H](CC[C@@H]4[C@@]5(C)CC[C@H](O)C(C)(C)[C@@H]5CC[C@]43C)[C@@H]12 [Betulinic acid, betulinic acid]
toxicity in co-cultures [1]: toxicity at higher concentrations

CO[C@H]1C[C@H](O[C@H]2CC[C@@]3(C)[C@H](CC[C@@H]4[C@@H]3CC[C@]3(C)[C@@H](C5=CC(=O)OC5)[C@@H](OC(C)=O)C[C@]43O)C2)O[C@@H](C)[C@@H]1O [Oleandrin, oleandrin]
neuroprotection in APP brain slice assay [2]: concentration-dependent neuroprotection | potency relative to KW6002 ([3]; FIGS. 3A-3D): ~100 fold | efficacy (surviving neurons) in cortico-striatal co-culture assay ([3]; result in words): more effective than KW6002; also recorded: strongest hits; also recorded: on par with KW6002

CC1(C)CC[C@]2(C(=O)O)CC[C@]3(C)C(=CC[C@@H]4[C@@]5(C)CC[C@H](O)C(C)(C)[C@@H]5CC[C@]43C)[C@@H]2C1 [Oleanolic acid, oleanolic acid]
cellular toxicity [4]: not exhibited observable cellular toxicity | neuroprotection in brain slice OGD assay [4]: robust neuroprotection | neuroprotection in brain slice OGD assay ([4]; listed as OA): accounts for a majority of the neuroprotective activity; also recorded: substantially higher activity than UA | expression of ARE target genes [1]: robust upregulation of canonical ARE target genes

C[C@H]1[C@H](C)CC[C@]2(C(=O)O)CC[C@]3(C)C(=CC[C@@H]4[C@@]5(C)CC[C@H](O)C(C)(C)[C@@H]5CC[C@]43C)[C@H]12 [Ursolic acid, ursolic acid]
neuroprotection in brain slice OGD assay ([4]; listed as UA): lower activity; also recorded: rise and fall in activity as concentration is increased | expression of ARE target genes [1]: robust upregulation of canonical ARE target genes; also recorded: clear upregulation of Srx and Hmox1 | expression of ARE target genes ([1]; listed as UA): due more so to the activity of UA than of OA or BA

CO[C@H]1[C@H](O)[C@H](O[C@H]2CC[C@@]3(C)[C@H](CC[C@@H]4[C@@H]3CC[C@]3(C)[C@@H](C5=CC(=O)OC5)CC[C@]43O)C2)O[C@@H](C)[C@@H]1O [neriifolin]
neuroprotection of non-OGD brain slices [5]: modest levels of neuroprotection
